What was measured:
[1] = target: GABA-A receptor; anion channel; test: Displacement of [3H]- muscimol in cerebellar tissue of male rats
Mus musculus = test: Tested for the antagonism of bicuculline -induced convulsions in female mice intraperitoneally; type: functional; details: ip, read-out: ID50 (the source's name)
Rattus norvegicus = species: Rattus norvegicus; test: Tested for its GABA agonistic activity against spontaneous firing in explants from cerebellum of 2-4 day old rats; type: functional

| Compound | IC50 [1] | ED50 (Mus musculus) | Decrease of spontaneous firing rate (Rattus norvegicus) |
| --- | --- | --- | --- |
| O=C1NOC2CNCCC12 (cis isomer) | > 1000 nM | > 56 mg/kg |  |
| Oc1noc2c1CCNC2 [GABOXADOL] |  | 1.9 mg/kg |  |
| NCc1cc(O)no1 [MUSCIMOL] | 3 nM | 0.76 mg/kg | >=1e-06 M |

— ChEMBL document CHEMBL1122920, “Synthesis and pharmacological evaluation of cis-2,3,3a,4,5,6,7,7a-octahydro-3-oxoisoxazolo[5,4-c]pyridine: a structural analogue of the GABA agonist THIP” (J Med Chem, 1985)
